Numbered stars: 1 amine (or outer) side, 2 acyl side, 3 side chain; on linkers, the order of the positions; unused ones are H or OH. Bridge positions count the residues as written; N and C are the ends. Square brackets hold non-standard residues; d marks the D form. Side chains are listed from the residue outwards. Peptide text beside a SMILES is read from it. * marks the point of attachment. C18 diacid = O=C(O)CCCCCCCCCCCCCCCCC(=O)*; γGlu = O=C(O)[C@H](CCC(=O)[*:2])N[*:1]; Aib = CC(C)(N)C(=O)O
What was measured:
[1] = Pharmacokinetic determination via IV and SC administration in Sprague Dawley rats; conditions: male, rat, plasma, 20 nmol/kg
[2] = target: T1, rat amylin receptor (calcitonin receptor co-expressed with receptor activity modifying protein, RAMP3) (Rat AMYR3) (Rattus norvegicus, UniProt P32214+Q9JJ73); experiment: cAMP production in HEK cells with stable recombinant expression of rat amylin receptor (Rat AMYR3); format: cell-based; conditions: assay buffer with 0.1% BSA
T1 construct: expressed in transfected cells
T1 sequence (P32214 25-516): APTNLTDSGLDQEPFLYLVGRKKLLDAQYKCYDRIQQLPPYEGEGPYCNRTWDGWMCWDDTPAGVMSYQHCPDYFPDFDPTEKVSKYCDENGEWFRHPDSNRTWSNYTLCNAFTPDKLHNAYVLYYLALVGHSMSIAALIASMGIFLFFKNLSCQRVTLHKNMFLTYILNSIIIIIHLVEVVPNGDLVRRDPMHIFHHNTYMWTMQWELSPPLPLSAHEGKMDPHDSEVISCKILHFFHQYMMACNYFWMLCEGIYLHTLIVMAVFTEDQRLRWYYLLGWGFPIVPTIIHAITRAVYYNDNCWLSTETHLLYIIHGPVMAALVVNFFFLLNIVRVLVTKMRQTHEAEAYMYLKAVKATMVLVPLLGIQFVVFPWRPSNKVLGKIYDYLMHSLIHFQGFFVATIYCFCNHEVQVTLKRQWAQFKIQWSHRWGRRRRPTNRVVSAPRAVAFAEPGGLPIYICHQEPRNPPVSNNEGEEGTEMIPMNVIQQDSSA
T1 sequence (Q9JJ73 23-147 partner): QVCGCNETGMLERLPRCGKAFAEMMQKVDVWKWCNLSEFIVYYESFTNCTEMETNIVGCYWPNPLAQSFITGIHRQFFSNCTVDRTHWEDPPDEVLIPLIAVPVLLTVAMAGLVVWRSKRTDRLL
Experimental: (§1) The functional activities of lipidated pramlintide analogue peptides, such as cAMP production, were tested in 1321N1 cell line with stable recombinant expression of human calcitonin receptor (hCTR) or human amylin receptor (calcitonin receptor co-expressed with receptor activity modifying protein, RAMP3) (hAMYR3) or HEK cells with stable recombinant expression of rat calcitonin receptor (rat CTR) or rat amylin receptor (calcitonin receptor co-expressed with receptor activity modifying protein, RAMP3) (Rat AMYR3).
(§2) Cryopreserved cell stock was thawed rapidly in a water-bath, suspended in assay buffer (0.1% BSA (Sigma # A3059) in HBSS (Sigma # H8264) with 25 mM HEPES, pH 7.4 and containing 0.5 mM IB MX (Sigma# 17018)) and spun at 240×g for 5 minutes. Cells were re-suspended in assay buffer at a batch-dependent optimized concentration (e.g. hCTR cells at 0.125×10^5 cells/mL, hAMYR3 cells at 0.125×10^5 cells/mL, rat CTR cells at 1x10^5 cells/mL, rat AMYR3 at 2×10^5 cells/mL).
(§3) The test peptide stock was prepared in DMSO and diluted in assay buffer to reach stated concentrations and transferred in duplicates into a 384-black shallow well microtitre assay plate (Corning # 3676). Cells were added to the assay plate, incubated at room temperature for 30 minutes and the cAMP level measured using cAMP dynamic 2 HTRF kit (Cisbio, Cat # 62AM4PEJ), following the two step protocol as per manufacturer's recommendations. The plates were read on an Envision (Perkin Elmer) using excitation wavelength of 320 nm and emission wavelengths of 620nm & 665 nm.
(§4) Data was transformed to % Delta F as described in the manufacturer's guidelines and analyzed as percent activation of maximal amylin or calcitonin effect by 4-parameter logistic fit to determine EC50 values. The selectivity of a peptide to hAMYR vs hCTR is defined as a ratio of EC50 values at the two receptors.

[3] = target: T2, human calcitonin receptor (hCTR) (Homo sapiens, UniProt P30988); experiment: cAMP production in 1321N1 cells with stable recombinant expression of human calcitonin receptor (hCTR); format: cell-based; conditions: cAMP, 1321N1 cells, assay buffer with 0.1% BSA; read-out: EC50 (pM) hCTR
T2 construct: expressed in transfected cells
T2 sequence (P30988 25-474): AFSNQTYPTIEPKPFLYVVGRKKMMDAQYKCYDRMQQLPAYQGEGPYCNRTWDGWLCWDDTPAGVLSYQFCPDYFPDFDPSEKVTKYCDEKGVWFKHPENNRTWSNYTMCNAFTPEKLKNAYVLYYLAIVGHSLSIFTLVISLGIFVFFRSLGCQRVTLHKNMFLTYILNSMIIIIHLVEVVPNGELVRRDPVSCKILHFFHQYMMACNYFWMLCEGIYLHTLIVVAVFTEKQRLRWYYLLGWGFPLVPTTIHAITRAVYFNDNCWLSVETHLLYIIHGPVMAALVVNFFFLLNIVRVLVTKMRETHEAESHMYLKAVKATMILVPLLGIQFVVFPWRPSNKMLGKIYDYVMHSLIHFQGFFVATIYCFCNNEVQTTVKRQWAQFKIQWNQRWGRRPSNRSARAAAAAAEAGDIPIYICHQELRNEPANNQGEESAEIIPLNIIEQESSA
In short: (§5)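 EC50 values come from 4-parameter logistic fits of HTRF cAMP signal, normalised to maximal calcitonin or amylin effect. Peptides were tested in duplicate for 30 min at RT in IBMX-containing (0.5 mM) BSA/HEPES buffer pH 7.4 on stable 1321N1 (human CTR, AMYR3) or HEK (rat CTR, AMYR3) lines.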

[4] = system: lean rats; experiment: Rat acute food intake study; format: in vivo; conditions: lean male Sprague Dawley rats, 20 nmol/kg subcutaneously
Experimental: Male Sprague Dawley rats were obtained from Taconic Denmark, ApS at approximately 7 weeks of age. Rats were implanted with a microchip for identification, housed 4/cage with enrichment, free access to food and water, and allowed one week acclimatisation while non-invasive characterization was performed. Rats were on a 12:12 light:dark cycle that switches at 1pm:1am. Food intake was monitored via the HM2 system (Lafayette Instrument) that allows for monitoring in a home cage. As each rat enters an access tunnel to feed, an IR beam is broken, and the implanted microchip is read. Resulting changes to food weight is then assigned to the specific animal. Social order has shown no impact to overall feeding patterns and amounts.
Rats were sorted into groups based on Day -1 body weight and 24-hour accumulated food intake (n=7 per group). On Day 0 rats were weighed, then fasted for 6 hours. Thirty (30) minutes prior to the reintroduction of food, rats were dosed subcutaneously (5 mL/kg) with 20 nmol/kg of test compound or 60 nmol/kg peptide 1 (pramlintide) diluted in an appropriate vehicle, after which food was returned, and lights went out. Automated food intake was monitored for the following 3 days, and rats were weighed once per day.
Food intake per rat was batched into 1-hour intervals and integrated into Gubra's GubraView data management system. Discrete food intake data was exported into MS Excel from which cumulative food intake data was generated. Cumulative food intake data was then transposed into GraphPad Prism (v8.0.1) for analysis of dark period feeding

[5] = target: T3, human amylin receptor (calcitonin receptor co-expressed with receptor activity modifying protein, RAMP3) (hAMYR3) (Homo sapiens, UniProt O60896+P30988); experiment: cAMP production in 1321N1 cells with stable recombinant expression of human amylin receptor (hAMYR3); format: cell-based; conditions: for Ratio (selectivity hAMYR vs hCTR, ratio of EC50 values at the two receptors): EC50 hCTR / EC50 hAMYR3; for EC50: cAMP, 1321N1 cells, assay buffer with 0.1% BSA, read-out: EC50 (pM) hAMYR3
T3 construct: expressed in transfected cells
T3 sequence (P30988 25-474): T2 sequence (P30988 25-474)
T3 sequence (O60896 24-148 partner): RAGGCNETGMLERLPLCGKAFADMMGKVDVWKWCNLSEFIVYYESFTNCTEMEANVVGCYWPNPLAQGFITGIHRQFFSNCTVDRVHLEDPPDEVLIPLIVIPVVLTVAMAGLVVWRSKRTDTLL
In short: as §5

[6] = target: T4, rat calcitonin receptor (rat CTR) (Rattus norvegicus, UniProt P32214); experiment: cAMP production in HEK cells with stable recombinant expression of rat calcitonin receptor (rat CTR); format: cell-based; conditions: assay buffer with 0.1% BSA
T4 construct: expressed in transfected cells
T4 sequence (P32214 25-516): T1 sequence (P32214 25-516)
Experimental: as §1, §2, §3, §4

| half-life ([1]; iv) [h] | half-life ([1]; sc) [h] | EC50 [2] [pM] | EC50 [3] [pM] | Ratio (selectivity hAMYR vs hCTR, ratio of EC50 values at the two receptors) [5] | EC50 [5] [pM] | EC50 [6] [pM] | Compound | Cummulative food intake (% vehicle treated intake) At 12 h [4] [% vehicle treated intake] | Cummulative food intake (% vehicle treated intake) At 24 h [4] [% vehicle treated intake] | Cummulative food intake (% vehicle treated intake) At 48 h [4] [% vehicle treated intake] |
| --- | --- | --- | --- | --- | --- | --- | --- | --- | --- | --- |
| 9.3 | 10 | 14.5 | 19000 | 29 | 647 | 3650 | CC[C@H](C)[C@H](NC(=O)[C@@H]1CCCN1C(=O)CNC(=O)[C@H](Cc1ccccc1)NC(=O)[C@H](CC(N)=O)NC(=O)C(C)(C)NC(=O)[C@H](CO)NC(=O)[C@H](CO)NC(=O)[C@H](Cc1c[nH]cn1)NC(=O)[C@H](CCCNC(=N)N)NC(=O)[C@H](CC(C)C)NC(=O)[C@H](Cc1ccccc1)NC(=O)[C@H](CC(N)=O)NC(=O)[C@H](C)NC(=O)[C@H](CC(C)C)NC(=O)[C@H](CCCNC(=N)N)NC(=O)[C@H](CCC(N)=O)NC(=O)[C@@H](NC(=O)[C@H](C)NC(=O)[C@@H]1CSSC[C@H](NC(=O)[C@H](CCCCN)NC(=O)[C@@H](N)CCCCNC(=O)CC[C@H](NC(=O)CCCCCCCCCCCCCCCCC(=O)O)C(=O)O)C(=O)N[C@@H](CC(N)=O)C(=O)N[C@@H]([C@@H](C)O)C(=O)N[C@@H](C)C(=O)N[C@@H]([C@@H](C)O)C(=O)N1)[C@@H](C)O)C(=O)N[C@@H](CC(C)C)C(=O)N1CCC[C@H]1C(=O)N1CCC[C@H]1C(=O)N[C@H](C(=O)N[C@@H](CCC(=O)O)C(=O)N[C@H](C(=O)NCC(=O)N[C@@H](CO)C(=O)N[C@@H](CC(N)=O)C(=O)N[C@H](C(=O)N[C@@H](Cc1ccc(O)cc1)C(N)=O)[C@@H](C)O)C(C)C)[C@@H](C)O [Peptide 43, K(γE-C18diacid)K[CNTATC]ATQRLANFLRHSS(Aib)NFGPILPPTEVGSNTY-amide] (H-K([γGlu-C18 diacid])KCNTATCATQRLANFLRHSS[Aib]NFGPILPPTEVGSNTY-NH2; disulfide 3-8; N-terminus assumed) | 60.8 | 55.6 | 46.6 |
| 10.6 | 12.9 | 19.5 | 6050 | 9.2 | 656 | 1220 | CC[C@H](C)[C@H](NC(=O)[C@@H]1CCCN1C(=O)CNC(=O)[C@H](Cc1ccccc1)NC(=O)[C@H](CC(N)=O)NC(=O)[C@H](CC(N)=O)NC(=O)[C@H](CO)NC(=O)[C@H](CO)NC(=O)[C@H](Cc1c[nH]cn1)NC(=O)C(C)(C)NC(=O)[C@H](CC(C)C)NC(=O)[C@H](Cc1ccccc1)NC(=O)[C@H](CC(N)=O)NC(=O)[C@H](C)NC(=O)[C@H](CC(C)C)NC(=O)[C@H](CCCNC(=N)N)NC(=O)[C@H](CCC(N)=O)NC(=O)[C@@H](NC(=O)[C@H](C)NC(=O)[C@@H]1CSSC[C@H](NC(=O)[C@H](CCCCN)NC(=O)[C@@H](N)CCCCNC(=O)CC[C@H](NC(=O)CCCCCCCCCCCCCCCCC(=O)O)C(=O)O)C(=O)N[C@@H](CC(N)=O)C(=O)N[C@@H]([C@@H](C)O)C(=O)N[C@@H](C)C(=O)N[C@@H]([C@@H](C)O)C(=O)N1)[C@@H](C)O)C(=O)N[C@@H](CC(C)C)C(=O)N1CCC[C@H]1C(=O)N1CCC[C@H]1C(=O)N[C@H](C(=O)N[C@@H](CCC(=O)O)C(=O)N[C@H](C(=O)NCC(=O)N[C@@H](CO)C(=O)N[C@@H](CC(N)=O)C(=O)N[C@H](C(=O)N[C@@H](Cc1ccc(O)cc1)C(N)=O)[C@@H](C)O)C(C)C)[C@@H](C)O [Peptide 140] (H-K([γGlu-C18 diacid])KCNTATCATQRLANFL[Aib]HSSNNFGPILPPTEVGSNTY-NH2; disulfide 3-8; N-terminus assumed) | 62.4 | 54.4 | 56.5 |
